From patent US20250223404A1, “SHAPED ARTICLE COMPRISING A POLY(ARYL ETHER SULFONE) (PAES) POLYMER AND METHOD OF MAKING USING MELT PROCESSING” (Solvay Specialty Polymers USA, LLC, priority 2022, published 2025)
Read-outs that look alike come from different tables or passages of the source.

Target: T1, human Estrogen receptor alpha (ERα) (Homo sapiens, UniProt P03372)
T1 construct: expressed in transfected cells; host or cells: GeneBLAzer ER-α-UAS-bla GripTite 293 cells (stably integrated)
T1 sequence (P03372 311-547 limits assumed): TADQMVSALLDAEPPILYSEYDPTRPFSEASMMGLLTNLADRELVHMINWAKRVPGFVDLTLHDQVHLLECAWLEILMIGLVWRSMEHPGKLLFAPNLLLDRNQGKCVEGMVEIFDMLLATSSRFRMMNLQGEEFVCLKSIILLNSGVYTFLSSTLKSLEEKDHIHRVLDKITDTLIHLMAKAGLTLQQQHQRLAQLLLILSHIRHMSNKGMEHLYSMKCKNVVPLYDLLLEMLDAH
Test: GeneBLAzer Cell-Based Nuclear Receptor Assay (beta-lactamase reporter), ER-α-UAS-bla GripTite 293 cells
Details: for estrogenic activity on ERα cells compared with BPA, BPS and BP: in words
Protocol: The response value “EC50” was measured by using the GeneBLAzer® Cell-Based Nuclear Receptor Assay technology which uses the GeneBLAzer®.
The monomers (see Table 7) were dissolved in 100% biological-grade DMSO at a concentration of 7 to 250000 nM (nanomolar). The ER-α-UAS-bla GripTite™ 293 cells were used to measure EC50. The higher the EC50 value is, the weaker the estrogenic agonist activity is for the monomer tested.
The GeneBLAzer® ER-α-UAS-bla GripTite™ cells contain a ligand-binding domain (LBD) of the human Estrogen receptor alpha (ERα) fused to a DNA-binding domain of GAL4 plasmid stably integrated in the GeneBLAzer® UAS-bla GripTite™ cell line. The GeneBLAzer® UAS-bla GripTite™ cells stably express a beta-lactamase reporter gene under the transcriptional control of an upstream activator sequence (UAS). When an estrogenic agonist binds to the LBD of the GAL4 (DBD)-ER α (LBD) fusion protein, the protein binds to the UAS, resulting in expression of beta-lactamase.

[1] = estrogen agonist activity on ERα cells, read-out: EC50 value
[2] = estrogen agonist activity, ER-α-UAS-bla GripTite 293 cells, monomers in DMSO, 7 to 250000 nM, read-out: EC50 (nM) response value to the estrogen receptor alpha

| EC50 [2] [nM] | estrogenic activity on ERα cells compared with BPA, BPS and BP | Compound | EC50 [1] [nM] |
| --- | --- | --- | --- |
| > 79100 | much lower estrogenic activity | Oc1cc2ccccc2cc1O [2,3-NDO, 2,3 Napthalene diol] | ≥ 30000 |
| 32000 | much lower estrogenic activity | Oc1ccc2ccc(O)cc2c1 [2,7-NDO, 2,7 Napthalene diol] |  |
| 791 |  | O=S(=O)(c1ccc(O)cc1)c1ccc(O)cc1 [BPS, 4,4′-dihydroxydiphenyl sulfone, reference compound] |  |

| Compound | EC50 [2] [nM] | estrogenic activity on ERα cells compared with BPA, BPS and BP | EC50 [1] [nM] |
| --- | --- | --- | --- |
| Oc1cccc2c(O)cccc12 [1,5-NDO, 1,5 Naphthalene diol] | > 79100 | much lower estrogenic activity | ≥ 30000 |
